Measurements taken from publication PMC2706954, “Dissecting Structural and Functional Diversity of the Lantibiotic Mersacidin” (Chemistry & Biology, 2009).
In brackets after ≈: the same amount, converted by molar mass. Several values for one entry are separate records, joined by “and”; a condition that tells them apart may be missing. Equal entries are not always repeated. Where two headings read alike, the source gives them in different places.

Tests used:
S. aureus R33 MRSA = type: cell-based, Staphylococcus aureus
Method: (§1) Antibacterial activity of fermentation samples or purified samples was determined by Mueller-Hinton Agar diffusion bioassays using M. luteus ATCC 4698 as the indicator strain. Susceptibility testing (minimum inhibitory concentration [MIC]) for all aerobic organisms, with the exception of S. pneumoniae, was performed following the recommendations of CLSI. Susceptibility testing of S. pneumoniae was performed by two-fold serial dilutions in brain-heart-infusion broth supplemented with 50 μg/ml Ca^2+. Vancomycin was used as a reference antibiotic, and plates were incubated aerobically, with shaking, for 18–20 hr at 37°C with the MIC defined as the lowest concentration of drug that prevented visible growth.

S. aureus SH1000 = type: cell-based, Staphylococcus aureus
Method: as §1

S. pneumoniae BAA-255 = type: cell-based, Streptococcus pneumoniae
Method: as §1

M. luteus ATCC4698 = type: cell-based, Micrococcus luteus
Method: as §1

E. faecalis ATCC29212 = type: cell-based
Method: as §1

E. faecium 7131121 VRE = type: cell-based
Method: as §1

E. faecium ATCC19579 = type: cell-based
Method: as §1

S. epidermidis NCTC11047 = type: cell-based
Method: as §1

[1] = CLSI recommendations, incubated aerobically with shaking 18–20 hr at 37°C, MIC = lowest concentration preventing visible growth, purified variants

MIC S. aureus R33 MRSA (S. aureus R33 MRSA; R33)	MIC S. aureus SH1000 (S. aureus SH1000; SH1000)	MIC S. pneumoniae BAA-255 (S. pneumoniae BAA-255; BAA-255)	MIC M. luteus ATCC4698 (M. luteus ATCC4698; ATCC4698)	MIC E. faecalis ATCC29212 (E. faecalis ATCC29212; ATCC29212)	MIC E. faecium 7131121 VRE (E. faecium 7131121 VRE; 7131121 VRE)	MIC E. faecium ATCC19579 (E. faecium ATCC19579; ATCC19579)	MIC S. epidermidis NCTC11047 (S. epidermidis NCTC11047; NCTC11047)	Structure (SMILES)	MIC S. aureus R33 MRSA (S. aureus R33 MRSA; [1])	MIC S. aureus SH1000 (S. aureus SH1000; [1])	MIC S. pneumoniae BAA-255 (S. pneumoniae BAA-255; two-fold serial dilutions in brain-heart-infusion broth with 50 μg/ml Ca2+, 18–20 hr at 37°C, MIC = lowest concentration preventing visible growth)	MIC M. luteus ATCC4698 (M. luteus ATCC4698; [1])	MIC E. faecalis ATCC29212 (E. faecalis ATCC29212; [1])	MIC E. faecium 7131121 VRE (E. faecium 7131121 VRE; vancomycin-resistant clinical isolate, CLSI recommendations, 18–20 hr at 37°C, MIC = lowest concentration preventing visible growth)	MIC E. faecium ATCC19579 (E. faecium ATCC19579; [1])	MIC S. epidermidis NCTC11047 (S. epidermidis NCTC11047; [1])
64, >64 μg/ml	>64 µg/mL	>64 µg/mL	64 µg/mL (≈ 34.5 µM)	>64 µg/mL	>64 µg/mL	>64 µg/mL	>64 µg/mL	C=C1NC(=O)C2NC(=O)[C@H](CC(C)C)NC(=O)C(NC(=O)[C@@H]3CSC(C)C(NC(=O)[C@H](Cc4ccccc4)NC(=O)C4NC(=O)[C@@H](N)CSC4C)C(=O)N[C@@H](CC(C)C)C(=O)N4CCC[C@H]4C(=O)NCC(=O)NCC(=O)N[C@@H](CO)C(=O)NCC(=O)N[C@@H](C(C)C)C(=O)N3)C(C)SC[C@H](NC(=O)[C@H](CCC(=O)O)NC1=O)C(=O)N[C@@H]([C@@H](C)CC)C(=O)NC=CSC2C (stereo partly shown) [G9S]								
								C=C1NC(=O)C2NC(=O)[C@H](CC(C)C)NC(=O)C(NC(=O)[C@@H]3CSC(C)C(NC(=O)[C@H](Cc4ccccc4)NC(=O)C4NC(=O)[C@@H](N)CSC4C)C(=O)N[C@@H](CC(C)C)C(=O)N4CCC[C@H]4C(=O)NCC(=O)N[C@@H](CC(N)=O)C(=O)NCC(=O)NCC(=O)N[C@@H](C(C)C)C(=O)N3)C(C)SC[C@H](NC(=O)[C@H](CCC(=O)O)NC1=O)C(=O)N[C@@H]([C@@H](C)CC)C(=O)NC=CSC2C (stereo partly shown) [G8N]	16 µg/mL and 32 µg/mL	>64 µg/mL	>64 µg/mL	8 µg/mL (≈ 4.25 µM)	>64 µg/mL	>64 µg/mL	>64 µg/mL	64 µg/mL (≈ 34 µM)
16 µg/mL (≈ 8.75 µM)	64 µg/mL (≈ 35 µM)	4 µg/mL (≈ 2.19 µM)	2 µg/mL (≈ 1.09 µM)	64 µg/mL (≈ 35 µM)	>64 µg/mL	32 µg/mL (≈ 17.5 µM)	32 µg/mL (≈ 17.5 µM)	CC[C@H](C)[C@@H]1NC(=O)[C@@H]2CSC(C)C(NC(=O)[C@@H]3CSC(C)C(NC(=O)[C@H](Cc4ccccc4)NC(=O)C4NC(=O)[C@@H](N)CSC4C)C(=O)N[C@@H](CC(C)C)C(=O)N4CCC[C@H]4C(=O)NCC(=O)NCC(=O)NCC(=O)NCC(=O)N[C@@H](C(C)C)C(=O)N3)C(=O)N[C@@H](CC(C)C)C(=O)NC(C(=O)N[C@@H](C)C(=O)N[C@@H](CCC(=O)O)C(=O)N2)C(C)SC=CNC1=O (stereo partly shown) [S16A]								
64 µg/mL (≈ 33.6 µM)	64, >64 μg/ml	16 µg/mL (≈ 8.39 µM)	8 µg/mL (≈ 4.2 µM)	>64 µg/mL	>64 µg/mL	>64 µg/mL	64 µg/mL (≈ 33.6 µM)	C=C1NC(=O)C2NC(=O)[C@H](CC(C)C)NC(=O)C(NC(=O)[C@@H]3CSC(C)C(NC(=O)[C@H](Cc4ccccc4)NC(=O)C4NC(=O)[C@@H](N)CSC4C)C(=O)N[C@@H](CC(C)C)C(=O)N4CCC[C@H]4C(=O)NCC(=O)N[C@@H](Cc4c[nH]cn4)C(=O)NCC(=O)NCC(=O)N[C@@H](C(C)C)C(=O)N3)C(C)SC[C@H](NC(=O)[C@H](CCC(=O)O)NC1=O)C(=O)N[C@@H]([C@@H](C)CC)C(=O)NC=CSC2C (stereo partly shown) [G8H]								
64, >64 μg/ml	>64 µg/mL	>64 µg/mL	8 µg/mL (≈ 4.25 µM)	>64 µg/mL	>64 µg/mL	>64 µg/mL	>64 µg/mL	C=C1NC(=O)C2NC(=O)[C@H](CC(C)C)NC(=O)C(NC(=O)[C@@H]3CSC(C)C(NC(=O)[C@H](Cc4ccccc4)NC(=O)C4NC(=O)[C@@H](N)CSC4C)C(=O)N[C@@H](CC(C)C)C(=O)N4CCC[C@H]4C(=O)NCC(=O)NCC(=O)NCC(=O)N[C@@H](CC(N)=O)C(=O)N[C@@H](C(C)C)C(=O)N3)C(C)SC[C@H](NC(=O)[C@H](CCC(=O)O)NC1=O)C(=O)N[C@@H]([C@@H](C)CC)C(=O)NC=CSC2C (stereo partly shown) [G10N]								
8 µg/mL (≈ 4.35 µM)	32 µg/mL (≈ 17.4 µM)	8 µg/mL (≈ 4.35 µM)	< 4 µg/mL	>64 µg/mL	>64 µg/mL	64 µg/mL (≈ 34.8 µM)	32 µg/mL (≈ 17.4 µM)	C=C1NC(=O)C2NC(=O)[C@H](CC(C)C)NC(=O)C(NC(=O)[C@@H]3CSC(C)C(NC(=O)[C@H](Cc4ccccc4)NC(=O)C4NC(=O)[C@@H](N)CSC4C)C(=O)N[C@@H](CC(C)C)C(=O)N4CCC[C@H]4C(=O)NCC(=O)NCC(=O)N[C@@H](C)C(=O)NCC(=O)N[C@@H](C(C)C)C(=O)N3)C(C)SC[C@H](NC(=O)[C@H](CCC(=O)O)NC1=O)C(=O)N[C@@H]([C@@H](C)CC)C(=O)NC=CSC2C (stereo partly shown) [G9A]								
8 µg/mL (≈ 4.35 µM)	32 µg/mL (≈ 17.4 µM)	32 µg/mL (≈ 17.4 µM)	1 µg/mL (≈ 0.543 µM)	32 µg/mL (≈ 17.4 µM)	64 µg/mL (≈ 34.8 µM)	32 µg/mL (≈ 17.4 µM)	16 µg/mL (≈ 8.69 µM)	CC=C1NC(=O)C2NC(=O)[C@H](CC(C)C)NC(=O)C(NC(=O)[C@@H]3CSC(C)C(NC(=O)[C@H](Cc4ccccc4)NC(=O)C4NC(=O)[C@@H](N)CSC4C)C(=O)N[C@@H](CC(C)C)C(=O)N4CCC[C@H]4C(=O)NCC(=O)NCC(=O)NCC(=O)NCC(=O)N[C@@H](C(C)C)C(=O)N3)C(C)SC[C@H](NC(=O)[C@H](CCC(=O)O)NC1=O)C(=O)N[C@@H]([C@@H](C)CC)C(=O)NC=CSC2C (stereo partly shown) [S16Db]								
64, >64 μg/ml	>64 µg/mL	8 µg/mL (≈ 4.35 µM)	8 µg/mL (≈ 4.35 µM)	>64 µg/mL	>64 µg/mL	>64 µg/mL	64, >64 μg/ml	C=C1NC(=O)C2NC(=O)[C@H](CC(C)C)NC(=O)C(NC(=O)[C@@H]3CSC(C)C(NC(=O)[C@H](Cc4ccccc4)NC(=O)C4NC(=O)[C@@H](N)CSC4C)C(=O)N[C@@H](CC(C)C)C(=O)N4CCC[C@H]4C(=O)NCC(=O)NCC(=O)NCC(=O)N[C@@H](C)C(=O)N[C@@H](C(C)C)C(=O)N3)C(C)SC[C@H](NC(=O)[C@H](CCC(=O)O)NC1=O)C(=O)N[C@@H]([C@@H](C)CC)C(=O)NC=CSC2C (stereo partly shown) [G10A]								
8 µg/mL (≈ 4.29 µM)	16 µg/mL (≈ 8.58 µM)		0.5 µg/mL (≈ 0.268 µM)	32 µg/mL (≈ 17.2 µM)	32 µg/mL (≈ 17.2 µM)	16 µg/mL (≈ 8.58 µM)	8 µg/mL (≈ 4.29 µM)	C=C1NC(=O)C2NC(=O)[C@H](CC(C)C)NC(=O)C(NC(=O)[C@@H]3CSC(C)C(NC(=O)[C@H](Cc4c[nH]c5ccccc45)NC(=O)C4NC(=O)[C@@H](N)CSC4C)C(=O)N[C@@H](CC(C)C)C(=O)N4CCC[C@H]4C(=O)NCC(=O)NCC(=O)NCC(=O)NCC(=O)N[C@@H](C(C)C)C(=O)N3)C(C)SC[C@H](NC(=O)[C@H](CCC(=O)O)NC1=O)C(=O)N[C@@H]([C@@H](C)CC)C(=O)NC=CSC2C (stereo partly shown) [F3W]								
	>64 µg/mL	>64 µg/mL	64 µg/mL (≈ 34.8 µM)	>64 µg/mL	>64 µg/mL	64 µg/mL (≈ 34.8 µM)	64 µg/mL (≈ 34.8 µM)	C=C1NC(=O)C2NC(=O)[C@H](CC(C)C)NC(=O)C(NC(=O)[C@@H]3CSC(C)C(NC(=O)[C@H](Cc4ccccc4)NC(=O)C4NC(=O)[C@@H](N)CSC4C)C(=O)N[C@@H](CC(C)C)C(=O)N4CCC[C@H]4C(=O)N[C@@H](C)C(=O)NCC(=O)NCC(=O)NCC(=O)N[C@@H](C(C)C)C(=O)N3)C(C)SC[C@H](NC(=O)[C@H](CCC(=O)O)NC1=O)C(=O)N[C@@H]([C@@H](C)CC)C(=O)NC=CSC2C (stereo partly shown) [G7A]								
	32 µg/mL (≈ 16.8 µM)	16 µg/mL (≈ 8.39 µM)	< 4 µg/mL	>64 µg/mL	>64 µg/mL	64 µg/mL (≈ 33.6 µM)	32 µg/mL (≈ 16.8 µM)	C=C1NC(=O)C2NC(=O)[C@H](CC(C)C)NC(=O)C(NC(=O)[C@@H]3CSC(C)C(NC(=O)[C@H](Cc4ccccc4)NC(=O)C4NC(=O)[C@@H](N)CSC4C)C(=O)N[C@@H](CC(C)C)C(=O)N4CCC[C@H]4C(=O)NCC(=O)NCC(=O)N[C@@H](Cc4c[nH]cn4)C(=O)NCC(=O)N[C@@H](C(C)C)C(=O)N3)C(C)SC[C@H](NC(=O)[C@H](CCC(=O)O)NC1=O)C(=O)N[C@@H]([C@@H](C)CC)C(=O)NC=CSC2C (stereo partly shown) [G9H]								
